Columns and labels:
EYA1A = molecular target: T1, EYA1A (Homo sapiens, UniProt Q99502); experiment: Screen of NCI Mechanistic Set II for EYA1A phosphatase activity with pNPP substrate; assay type: biochemical; conditions: transgenic fibroblasts, compared to control cultures
T1 construct: expressed in transfected cells; host or cells: transgenic fibroblasts
T1 sequence (Q99502 1-559 isoform Q99502-2): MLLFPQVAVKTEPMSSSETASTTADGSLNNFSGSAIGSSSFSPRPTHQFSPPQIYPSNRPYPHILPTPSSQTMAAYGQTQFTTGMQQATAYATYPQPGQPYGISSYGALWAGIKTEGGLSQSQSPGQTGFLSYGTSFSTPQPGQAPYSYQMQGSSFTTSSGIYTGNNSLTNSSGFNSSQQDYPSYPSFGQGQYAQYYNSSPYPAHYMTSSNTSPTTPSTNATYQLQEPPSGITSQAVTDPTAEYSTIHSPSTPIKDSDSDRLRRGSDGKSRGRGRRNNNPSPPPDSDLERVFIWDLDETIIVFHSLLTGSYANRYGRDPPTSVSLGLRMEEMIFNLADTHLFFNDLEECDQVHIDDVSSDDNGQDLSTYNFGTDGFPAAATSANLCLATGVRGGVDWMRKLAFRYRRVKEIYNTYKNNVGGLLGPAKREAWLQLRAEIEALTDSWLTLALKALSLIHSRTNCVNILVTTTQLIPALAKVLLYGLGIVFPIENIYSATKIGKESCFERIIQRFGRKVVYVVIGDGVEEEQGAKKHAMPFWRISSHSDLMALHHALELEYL
Procedure: FIG. 14 illustrates results of a screen for additional compounds for selective modulation of EYA1A phosphatase activity. The EYA1A phosphatase activity was estimated using p-nitrophenyl phosphate (pNPP) substrate. Briefly, phosphatase activity was determined in transgenic fibroblasts and pNP production was determined in comparison to control cultures. Among 736 compounds contained in the NCI mechanistic set (NCI Mechanistic Set II), 228 inhibitors of EYA1A phosphatase activity were identified.
With regard to modulators of the phosphotyrosine phosphatase activity of EYA1, the inventors screened a small molecule library, namely the NCI “Mechanistic Set II library”, obtained from the open chemical repository of the Developmental Therapeutics Program (DTP) of the National Cancer Institute, illustrated by FIG. 14.
p-Nitrophenyl Phosphate (PNPP) is a non-proteinaceous, non-specific substrate used in the art to assay protein, alkaline and acid phosphatases. The PNPP phosphatase activity is measured using a continuous or single-point spectrophotometric assay based on the ability of phosphatases to catalyze the hydrolysis of PNPP to p-nitrophenol, a chromogenic product with absorbance at 405 nm. Any available protocol can be followed to determine phosphatase activity using pNPP.

[1] = test system: EYA1A^tg mice challenged with UUO; experiment: Unilateral ureteral obstruction (UUO) kidney fibrosis in EYA1A^tg mice; assay type: in vivo, mouse
Procedure: From 3 days before surgery, C57BL/6 (referred as wildtype) or transgenic mice overexpressing human splice variants EYA1A (rtTACMV;hEYA1A-pTreTight, referred to as EYA1A^tg) and EYA1C (rtTACMV;hEYA1C-pTreTight, referred to as EYA1C^tg) were treated with either vehicle buffer (glucose 5%) or DOX (2 mg/ml, Sigma, St. Louis, USA) within drinking water ad libidum and renewal every 2 days.
Mice were anesthetized with isoflurane inhalation (2-3%), analgesia was performed by subcutaneous injection of 0.1 mg/kg body weight per day Buprenorphine. The ureter was separated from the surrounding tissues and two ligatures were placed about 5 mm apart in upper two-thirds of the left ureter to obtain reliable obstruction. Mice were sacrificed 3, 7 or 10 days after ureteral obstruction for further analyses.
Mice were injected intraperitoneally with Na3VO4 (8 mg/kg i.p. once per day, Sigma, St. Louis, USA) or caffeine (12.5 mg/kg i.p. once per day, Sigma, St. Louis, USA) starting one day prior of surgery, control mice received equivalent volume of PBS or DMSO.
Mice were injected intraperitoneally with SCR7 (20 mg/kg i.p. every alternate day, Sigma, St. Louis, USA) starting one day prior of surgery, control mice received equivalent volume of DMSO.
The inventors obtained 25 nucleotide antisense morpholino sequences (Gene Tools, Philomath, USA). The in vivo morpholinos contain a covalently linked octaguanidine dendrimer as a delivery moiety to facilitate entry into cells in vivo. Mice were injected intraperitoneally with 12.5 mg/kg body weight in vivo morpholinos in saline at a final volume of 100 μL every other day starting two days prior of surgery. A control in vivo
Lentiviral pLenti-Sce1 was produced in 293T virus packaging cells after transfection using morpholino that targets a human β-globin intron mutation was used as standard control. In vivo morpholino sequences are those of SEQ ID NOs: 9 (EYA1A-VMO), 10 (53Bp1-VMO) and 16 (control).
Formalin-fixed, paraffin-embedded kidneys and hearts from mice, and HOPE-fixed, paraffin-embedded human specimens were sectioned at 3 μm, Masson's Trichrome Stain (MTS) was performed at the University Medicine Göttingen. For morphometric analysis of interstitial fibrosis in mice and human biopsies, we assessed the fibrotic area using cellSens (Olympus, Tokyo, Japan) software. Ten visual fields were selected randomly for each MTS stained section at 200× magnification and the relative interstitial fibrotic area was evaluated by using a 10 mm^2 graticule.
Formalin-fixed, paraffin-embedded kidney sections from mice as well as from HOPE-fixed, paraffin-embedded human specimens were deparaffinized in xylene and rehydrated in ethanol containing distilled water. For immunofluorescent staining, EYA1 isoform antisera or primary antibodies against αSMA (A5228, Sigma, St. Louis, USA), Collagen-1 (ab34710, Abcam Biochemicals, Cambridge, UK), γH2A.X^pS139 (ab2893, Abcam Biochemicals, Cambridge, UK), γH2A.X^pS139 (05-636, Merck Millipore, Billerica, UK), γH2A.X^pY142 (ab94602, Abcam Biochemicals, Cambridge, UK), p-Chk1^pS317 (12302P, Cell Signaling, Danvers, USA), p-Chk2^pT68 (2197S, Cell Signaling, Danvers, USA), Rpa1 (2267S, Cell Signaling, Danvers, USA), Rad51 (sc-8349, Santa Cruz Biotechnology, Dallas, USA), 53Bp1 (sc-22760, Santa Cruz Biotechnology, Dallas, USA), Xrcc4 (sc-8285, Santa Cruz Biotechnology, Dallas, USA) and GFP (MA5-15256, Thermo Fisher Scientific, Waltham, USA) were used, secondary antibodies were labeled with Alexa Fluor 488, 594 or 647 (Life Technologies, Carlsbad, USA). Renal basement membranes were stained with antibodies against Collagen-4 (1340-30, SouthernBiotech, Birmingham, USA). Nuclear staining was performed using 4′,6-diamidino-2-phenylindole (DAPI, Vector Laboratories, Burlingame, USA). Quantifications were performed per high power field at 400× magnification, representative confocal pictures using an LSM 780 confocal laser scanning microscope (Zeiss, Oberkochen, Germany) are shown.

[2] = in vivo morpholino 12.5 mg/kg i.p. every other day, EYA1A^tg mice, UUO, 10 days
[3] = SCR7 20 mg/kg i.p. every alternate day, EYA1A overexpressing mice, 10 days after ureteral obstruction

Molecule	EYA1A phosphatase activity (EYA1A)	also measured
53Bp1-VMO: in vivo morpholino, SEQ ID NO: 10, with covalently linked octaguanidine dendrimer, blocking 53Bp1 translation (TCCATCTGCTCCCCTGGCATCC; all phosphorodiamidate morpholino (PMO); octaguanidine dendrimer covalently linked, position not given here, further chemistry not fully specified)		presence of Rpa1 (indicative of HR) ([1]; in vivo morpholino 12.5 mg/kg i.p. every other day, EYA1A-overexpressing mice, UUO): increased presence of Rpa1; 53Bp1 within chronically injured kidneys ([1]; in vivo morpholino 12.5 mg/kg i.p. every other day, EYA1A^tg mice, UUO): Depletion of 53Bp1; fibroblast accumulation [1, 2]: attenuated; renal fibrosis [1, 2]: attenuated
O=c1[nH]c(=S)[nH]c(N=Cc2ccccc2)c1N=Cc1ccccc1 [SCR7]		fibroblast accumulation [1, 3]: significantly reduced; fibrosis [1, 3]: significantly reduced
EYA1A-VMO: in vivo morpholino, SEQ ID NO: 9, with covalently linked octaguanidine dendrimer, specifically inhibiting EYA1A translation (CTGCAACTTGAGGAAACAGCAACAT; all phosphorodiamidate morpholino (PMO); octaguanidine dendrimer covalently linked, position not given here, further chemistry not fully specified)		pro-fibrotic effects ([1]; in vivo morpholino 12.5 mg/kg i.p. every other day, EYA1A overexpressing mice, 10 days after ureteral obstruction): reversed pro-fibrotic effects
N#CC(=C1C=CC(=NO)C=C1)c1ccc(Cl)cc1 [NSC No. 405158, alpha-(p-chlorophenyl)-4-oxo-2,5-cyclohexadiene-δ1,α-acetonitrile oxime]	Strong inducers	
[Mo12O36(PO4)] disodium salt [NSC No. 622116]	Strong inhibitors	

Continued, in another order:

EYA1A phosphatase activity (EYA1A)	Molecule	also measured
Strong inhibitors	Hexapotassium hexatriaconta-p-oxooctadecaoxobis [μ9-[phosphato(3-)-κO:κO:κO:κO′:κO′:κO″:κO″:κO′″:κO′″]]octadeca-molybdate(6-) [NSC No. 622124]	
Strong inducers	CN(C)c1cccc(/C=C(\C#N)c2ccccc2)c1 [NSC No. 667251, (Z)-3-[3-(dimethylamino)phenyl]-2-phenylprop-2-enenitrile]	
Strong inducers	O=c1ccc(-c2ccccc2)nn1-c1nc2ccccc2s1 [NSC No. 629659, 2-(2-benzothiazolyl)-6-phenyl-3(2H)-pyridazinone]	
Strong inhibitors	Cc1c2ccncc2cc2c1[nH]c1ccccc12 [NSC 87206, 5-Methyl-6H-pyrido(4,3-b)carbazole]	
Strong inducers	O=C1C(c2cnc3ccccc3n2)=C(O)c2ccccc21 [NSC No. 634224, 3-hydroxy-2-(2-quinoxalinyl)-1-indenone]	
Strong inhibitors	O=C1C=C(Nc2ccccc2C(=O)CC(=O)C(=O)Nc2ccc(Cl)cc2)c2ccccc2C1=O [NSC No. 641253]	
Strong inhibitors	COc1cc2cc3c4cc(OC)c(OC)cc4cc[n+]3c(C)c2cc1OC.O=C([O-])CS(=O)(=O)O [NSC No. 154890, Dibenzo(a,g)quinolizinium, 2,3,10,11-tetramethoxy-8-methyl-sulfoacetate]	
